Data taken from the supplement of paper PMC12137928.
Where a name gives a salt, the structure may show the parent alone.

System: HCT116
Conditions: 72 h
In short: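 After seeding at 250 cells per well in 1536-well plates, HCT116 cells were given 5 h to attach. CellTiter-Glo luminescence, scaled to 0% for vehicle and -100% for positive control, was pattern-corrected. Fitting with a four-parameter Hill model produced IC50 and maximal efficacy.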

IC50 cell viability (ICRF193 0 nM)	IC50 cell viability (ICRF193 200 nM)	Compound
> 45.8 µM	> 45.8 µM	C[C@H](N)C(=O)N[C@@H](C)C(=O)N[C@H]1[C@@H]2CN(c3nc4c(cc3F)c(=O)c(C(=O)O)cn4-c3ccc(F)cc3F)C[C@@H]21 [Alatrofloxacin mesylate]
> 45.8 µM	> 45.8 µM	CC(c1cc2ccccc2s1)N(O)C(N)=O (centres undefined) [Zileuton]
> 45.8 µM	> 45.8 µM	CC(=O)OCC(=O)[C@@]1(OC(C)=O)[C@@H](C)C[C@H]2[C@@H]3C[C@H](F)C4=CC(=O)C=C[C@]4(C)[C@@]3(F)[C@@H](O)C[C@@]21C [Diflorasone diacetate]
> 45.8 µM	> 45.8 µM	Cc1c(F)c(N2CCNC(C)C2)cc2c1c(=O)c(C(=O)O)cn2C1CC1 (centres undefined) [Grepafloxacin hydrochloride]
> 45.8 µM	> 45.8 µM	CCc1oc2ccccc2c1C(=O)c1cc(Br)c(O)c(Br)c1 [Benzbromarone]
> 45.8 µM	> 45.8 µM	CCCCCCCCCCCCCCCC(=O)O[C@@H]1[C@@H](O)[C@@H](O)[C@@H]([C@H](NC(=O)[C@@H]2C[C@@H](CCC)CN2C)[C@H](C)Cl)O[C@@H]1SC [Clindamycin palmitate HCl]
> 45.8 µM	> 45.8 µM	O=C(c1ccccc1)c1ccc2n1CCC2C(=O)O (centres undefined) [Ketorolac]
> 45.8 µM	> 45.8 µM	COc1ccc([C@@H]2CC(=O)c3c(O)cc(O[C@@H]4O[C@H](CO[C@@H]5O[C@@H](C)[C@H](O)[C@@H](O)[C@H]5O)[C@@H](O)[C@H](O)[C@H]4O)cc3O2)cc1O [Aurantiamarin (Methyl Hesperidin)]
> 45.8 µM	> 45.8 µM	COc1ccc(C(=O)NCc2ccc(OCCN(C)C)cc2)cc1OC [Itopride hydrochloride]
> 45.8 µM	> 45.8 µM	CCOC(=O)OC(C)OC1=C(C(=O)Nc2ccccn2)N(C)S(=O)(=O)c2ccccc21 (centres undefined) [Ampiroxicam]
> 45.8 µM	> 45.8 µM	Cc1c(C(C)C)c(=O)n(-c2ccccc2)n1C [Propyphenazone]
> 45.8 µM	> 45.8 µM	O=C(O)C[C@@H]1CC[C@H](NC(=O)Cc2cccs2)B(O)O1 [Vaborbactam]
> 45.8 µM	> 45.8 µM	CCC(NC(C)C)C(O)c1ccc(O)c2[nH]c(=O)ccc12 (centres undefined) [Procaterol]
> 45.8 µM	> 45.8 µM	Nc1cc(N2CCCCC2)nc(N)[n+]1[O-] [Minoxidil]
> 45.8 µM	> 45.8 µM	Cc1ccc(/C(=C\CN2CCCC2)c2ccccn2)cc1 [Triprolidine]
> 45.8 µM	> 45.8 µM	CC(=O)OC1CC2CCC1(C)C2(C)C (centres undefined) [BORNYL ACETATE]
> 45.8 µM	> 45.8 µM	O=C(O)c1ccc2nc(-c3cc(Cl)cc(Cl)c3)oc2c1 [Tafamidis]
> 45.8 µM	> 45.8 µM	Oc1ncnc2[nH]ncc12 [Allopurinol]
> 45.8 µM	> 45.8 µM	CC(=O)[C@@]1(O)CC[C@H]2[C@@H]3C[C@H](C)C4=CC(=O)C=C[C@]4(C)[C@@]3(F)[C@@H](O)C[C@@]21C [Fluorometholone]
> 45.8 µM	> 45.8 µM	CC1=CC(=O)c2ccccc2C1=O [Menadione]
> 45.8 µM	> 45.8 µM	CC(C)(O)c1ccccc1CC[C@@H](SCC1(CC(=O)O)CC1)c1cccc(/C=C/c2ccc3ccc(Cl)cc3n2)c1 [Montelukast sodium]
> 45.8 µM	> 45.8 µM	CO[C@@]1(NC(=O)Cc2cccs2)C(=O)N2C(C(=O)O)=C(COC(N)=O)CS[C@@H]21 [Cefoxitin]
> 45.8 µM	> 45.8 µM	Cc1c(N)nc([C@H](CC(N)=O)NC[C@H](N)C(N)=O)nc1C(=O)N[C@H](C(=O)N[C@H](C)[C@@H](O)[C@H](C)C(=O)N[C@H](C(=O)NCCc1nc(-c2nc(C(=O)NCCCN[C@@H](C)c3ccccc3)cs2)cs1)[C@@H](C)O)[C@@H](O[C@@H]1O[C@@H](CO)[C@@H](O)[C@H](O)[C@@H]1O[C@H]1O[C@H](CO)[C@@H](O)[C@H](OC(N)=O)[C@@H]1O)c1c[nH]cn1 [Peplomycin sulfate]

IC50 cell viability (ICRF193 0 nM)	IC50 cell viability (ICRF193 200 nM)	Compound
> 45.8 µM	> 45.8 µM	O=C(O)c1cc(=O)c2c(OCC(O)COc3cccc4oc(C(=O)O)cc(=O)c34)cccc2o1 [Sodium cromoglycate]
> 45.8 µM	> 45.8 µM	C[C@@H](O)[C@@H]1NC(=O)[C@H](CCCCN)NC(=O)[C@@H](Cc2c[nH]c3ccccc23)NC(=O)[C@H](Cc2ccccc2)NC(=O)[C@@H](NC(=O)[C@H](N)Cc2ccccc2)CSSC[C@@H](C(=O)N[C@H](CO)[C@@H](C)O)NC1=O [Octreotide acetate]
> 45.8 µM	> 45.8 µM	CN(C)CC(=O)O [N,N-DIMETHYLGLYCINE HYDROCHLORIDE]
> 45.8 µM	> 45.8 µM	N[C@@H]1CN(c2c(F)cc3c(=O)c(C(=O)O)cn([C@@H]4C[C@@H]4F)c3c2Cl)CC12CC2 [Sitafloxacin hydrate]
> 45.8 µM	> 45.8 µM	C[C@]12CCC(=O)C=C1CC[C@@H]1[C@@H]2[C@@H](O)C[C@@]2(C)[C@H]1CC[C@]2(O)C(=O)COC(=O)CCC(=O)O [Hydrocortisone 21-hemisuccinate sodium salt]
> 45.8 µM	> 45.8 µM	CC(=O)O[C@@H]1C(=O)O[C@H]2[C@@H]1OC(=O)[C@@H]2OC(C)=O [Aceglatone]
> 45.8 µM	> 45.8 µM	C=C1/C(=C\C=C2/CCC[C@]3(C)[C@@H]([C@H](C)/C=C/C=C/C(O)(CC)CC)CC[C@@H]23)C[C@@H](O)C[C@@H]1O [Seocalcitol]
> 45.8 µM	> 45.8 µM	O=C(Nc1c(Cl)cncc1Cl)c1ccc(OC(F)F)c(OCC2CC2)c1 [Roflumilast]
> 45.8 µM	> 45.8 µM	O=C(CCc1ccc(O)cc1)c1c(O)cc(O)cc1O[C@@H]1O[C@H](CO)[C@@H](O)[C@H](O)[C@H]1O [Phlorizin]
> 45.8 µM	> 45.8 µM	c1ccc2scnc2c1 [Benzothiazole]
> 45.8 µM	> 45.8 µM	CC1(C)[C@@H](O)CC[C@]2(C)[C@H]3C(=O)C=C4[C@@H]5C[C@@](C)(C(=O)O)CC[C@]5(C)CC[C@@]4(C)[C@]3(C)CC[C@@H]12 [ENOXOLONE]
> 45.8 µM	> 45.8 µM	CC(=O)NS(=O)(=O)c1ccc(N)cc1 [Sulfacetamide]
> 45.8 µM	> 45.8 µM	CO[C@@H]1[C@H](OC(=O)/C=C/C=C/C=C/C=C/C(=O)O)CC[C@]2(CO2)[C@H]1[C@@]1(C)O[C@@H]1CC=C(C)C [Fumagillin]
> 45.8 µM	> 45.8 µM	CC(C)Cc1ccc(CC(=O)O)cc1 [Ibufenac]
> 45.8 µM	> 45.8 µM	C=C[C@]1(C)C[C@@H](OC(=O)CSCCN(CC)CC)[C@]2(C)[C@H](C)CC[C@]3(CCC(=O)[C@H]32)[C@@H](C)[C@@H]1O [Tiamulin]
> 45.8 µM	> 45.8 µM	CCCCCCCCCC(=O)NO [Sodium decanehydroxamate]
> 45.8 µM	> 45.8 µM	Cc1ncc(CO)c(CO)c1O [Vitamin B6]
> 45.8 µM	> 45.8 µM	Cc1cn([C@@H]2C[C@@H](O)[C@H](CO)O2)c(=O)[nH]c1=O [Telbivudine]
> 45.8 µM	> 45.8 µM	O=C(C[S+]([O-])Cc1ccco1)NC/C=C\COc1cc(CN2CCCCC2)ccn1 (centres undefined) [Lafutidine]
> 45.8 µM	> 45.8 µM	CC(C)C(=O)Oc1ccc(CO)cc1[C@H](CCN(C(C)C)C(C)C)c1ccccc1 [FESOTERODINE FUMARATE]
> 45.8 µM	> 45.8 µM	CNC(=O)C[C@@H](N)C(=O)N[C@@H](C(=O)N[C@@H]1C(=O)N2[C@@H]1SC(C)(C)[C@@H]2C(=O)O)c1ccc(O)cc1 [Aspoxicillin]
> 45.8 µM	> 45.8 µM	CC12CC3CC(C)(C1)CC(N)(C3)C2 [Memantine hydrochloride]
> 45.8 µM	> 45.8 µM	N=C(N)NCCN1CCCCCCC1 [Guanethidine sulfate]

Compound	IC50 cell viability (ICRF193 0 nM)	IC50 cell viability (ICRF193 200 nM)
C[C@@H]1CC2=CC(=O)CC[C@@H]2[C@H]2CC[C@@]3(C)[C@@H](CC[C@]3(C)O)[C@@H]21 [Mibolerone]	> 45.8 µM	> 45.8 µM
COc1cc2c(cc1OC)C1CC(=O)C(CC(C)C)CN1CC2 (centres undefined) [Tetrabenazine Mesylate]	> 45.8 µM	> 45.8 µM
CN1C(=O)CCS(=O)(=O)C1c1ccc(Cl)cc1 (centres undefined) [Chlormezanone]	> 45.8 µM	> 45.8 µM
O=C(O)COc1ccccc1 [Phenoxyacetic acid]	> 45.8 µM	> 45.8 µM
CC[N+]1(C)[C@@H]2CC(OC(=O)[C@H](CO)c3ccccc3)C[C@H]1[C@@H]1O[C@@H]12 (some centres undefined) [Oxitropium Bromide]	> 45.8 µM	> 45.8 µM
CC(COc1ccc(Oc2ccccc2)cc1)Oc1ccccn1 (centres undefined) [Pyriproxyfen]	> 45.8 µM	> 45.8 µM
C[C@@H]1CN([C@H]2CC[C@](C#N)(c3ccc(F)cc3)CC2)CC[C@]1(C(=O)O)c1ccccc1 [Levocabastine hydrochloride]	> 45.8 µM	> 45.8 µM
CC(C(O)c1ccccc1)N(C)C/C=C/c1ccccc1 (centres undefined) [Cinnamedrine]	> 45.8 µM	> 45.8 µM
COc1ccc(C(=O)N2CCCC2=O)cc1 [Aniracetam]	> 45.8 µM	> 45.8 µM
Oc1ccc([C@@H]2CNCc3c2ccc(O)c3O)cc1O [Zelandopam]	> 45.8 µM	> 45.8 µM
CCC(=O)O[C@@](Cc1ccccc1)(c1ccccc1)[C@@H](C)CN(C)C [Levopropoxyphene napsylate]	> 45.8 µM	> 45.8 µM
